The source of these data is ChEMBL document CHEMBL1221208, “ATP-competitive inhibitors of the mitotic kinesin KSP that function via an allosteric mechanism” (Nat Chem Biol, 2007).

The target in assay [1] is T1, Kinesin-like protein KIF11 (Homo sapiens) (UniProt P52732).
T1 sequence (whole entry): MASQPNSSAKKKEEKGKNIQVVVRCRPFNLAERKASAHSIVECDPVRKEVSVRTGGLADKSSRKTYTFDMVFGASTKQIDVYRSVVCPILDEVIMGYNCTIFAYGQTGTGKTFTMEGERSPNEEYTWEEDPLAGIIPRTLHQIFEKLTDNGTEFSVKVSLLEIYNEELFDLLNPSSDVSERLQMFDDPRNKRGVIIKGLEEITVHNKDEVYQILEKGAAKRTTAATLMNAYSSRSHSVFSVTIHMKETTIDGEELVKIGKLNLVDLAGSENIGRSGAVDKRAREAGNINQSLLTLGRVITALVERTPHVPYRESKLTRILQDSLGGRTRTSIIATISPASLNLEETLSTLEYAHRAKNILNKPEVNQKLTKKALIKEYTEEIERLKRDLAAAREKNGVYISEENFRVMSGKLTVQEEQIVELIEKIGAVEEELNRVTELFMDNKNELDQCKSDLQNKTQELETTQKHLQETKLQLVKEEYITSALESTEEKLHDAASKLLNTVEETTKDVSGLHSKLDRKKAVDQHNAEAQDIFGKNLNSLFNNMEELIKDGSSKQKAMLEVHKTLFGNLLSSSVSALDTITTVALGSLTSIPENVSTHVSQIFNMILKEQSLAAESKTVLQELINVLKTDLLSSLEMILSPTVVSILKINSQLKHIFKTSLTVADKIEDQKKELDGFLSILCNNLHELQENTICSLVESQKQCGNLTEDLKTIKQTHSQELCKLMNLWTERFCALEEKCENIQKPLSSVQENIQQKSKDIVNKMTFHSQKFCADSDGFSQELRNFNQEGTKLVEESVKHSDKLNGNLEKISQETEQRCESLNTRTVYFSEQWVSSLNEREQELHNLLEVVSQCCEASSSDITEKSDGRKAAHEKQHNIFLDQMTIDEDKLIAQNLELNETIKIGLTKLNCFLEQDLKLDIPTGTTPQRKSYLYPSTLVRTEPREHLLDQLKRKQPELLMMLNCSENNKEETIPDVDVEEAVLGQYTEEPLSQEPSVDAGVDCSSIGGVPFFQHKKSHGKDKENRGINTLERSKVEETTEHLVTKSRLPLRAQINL
In words: Competitive inhibition of human Eg5 assessed as effect on ATPase activity using varying ATP levels in absence of microtubule by Lineweaver-Burke plot.

The species named for assay [2] is Homo sapiens. The experiment in a line: Competitive inhibition of human KSP KHC-L5 mutant with respect to ATP using varying ATP levels in presence of saturating levels of microtubule by Lineweaver-Burke plot.
Assay [3] has as its system T2, Kinesin-like protein KIF11 (Homo sapiens), P52732 [A133D].
T2 sequence (whole entry): T1 sequence (whole entry) with A133D
In words: Uncompetitive inhibition of human KSP A133D mutant with respect to microtubule using varying ATP levels in presence of saturating levels of microtubule by Lineweaver-Burke plot.

The species named for assay [4] is Homo sapiens. The experiment in a line: Uncompetitive inhibition of human KSP KHC-L5 mutant with respect to microtubule using varying ATP levels in presence of saturating levels of microtubule by Lineweaver-Burke plot.
The subject of assay [5] is T2, Kinesin-like protein KIF11 (Homo sapiens), P52732 [A133D]. The experiment in a line: Competitive inhibition of human KSP A133D mutant with respect to ATP using varying ATP levels in presence of saturating levels of microtubule by Lineweaver-Burke plot.

The structures appear in SMILES notation. Residue numbers refer to the chain shown, from its start. Activity calls are given as the source filed them. No cut-off for these calls is given here.

`NC(=O)Nc1ccc(-c2ccc(C(F)(F)F)cc2)cc1F`: the inhibition entry in assay [1] was “inactive”. For the same compound, the inhibition entry (in the assay listed under Homo sapiens [2]; in assay [3]; in the assay filed under Homo sapiens [4]; in assay [5]) was “Active” each time.

Turning to `O=C1CCc2cc(-c3ccc(C(F)(F)F)cc3)ccc2N1`, the inhibition result in assay [1] is “inactive”. The inhibition entry (in the assay filed under Homo sapiens [2]; in assay [3]; in the assay filed under Homo sapiens [4]; in assay [5]) was “Active” throughout.
